One data set can be described thus: Solubility. Type of data set: physicochemical. Particulars: in methanol and water.
A further data set is described as follows: Stability in solution. Type of data set: physicochemical.
The subject of the next data set is S. pyogenes A561. Format: cell-based. Particulars: incubation time 24 h. The source says:
(§1) Tables 4 to 6 show the in-vitro antibacterial activity (MIC values[μg/ml]) of the actagardine (Acta) and of the compounds according to the invention.

Another data set deals with S. aureus SG511. Type of data set: cell-based. Particulars: incubation time 24 h.
Text: as §1

For another data set, the system named is E. Coli. Format: cell-based. Particulars: incubation time 24 h.
Text: as §1

For the next data set, the system named is S. aureus Exp54146. Type of data set: cell-based. Particulars: incubation time 24 h.
Text: as §1

The test system of another data set is S. aureus 011DU5. Kind of data set: in-vitro antibacterial activity (MIC), incubation time 18 h. Type of data set: cell-based. Particulars: incubation time 18 h.
Text: as §1

Another data set deals with E. faecalis 02D2UC5. Described as above. Particulars: incubation time 18 h. Type of data set: cell-based.
Text: as §1

A further data set relates to S. milleri 02milGR12. The description is as above. Type of data set: cell-based. Conditions: incubation time 18 h.
Text: as §1

The subject of the next data set is Strepto gr. G 02G0CB2. The data set is described as above. Format: cell-based. Conditions: incubation time 18 h.
Text: as §1

Data set [1] concerns Staph. coag. negative 012HT5. Described as above. Format: cell-based. Conditions: incubation time 18 h.
Text: as §1

The next data set has as its system S. mitis 02mitGR16. Described as above. Format: cell-based. Particulars: incubation time 18 h.
Text: as §1

The test system of a further data set is E. faecalis 02D2HT10. The description is as above. Type of data set: cell-based. Conditions: incubation time 18 h.
Text: as §1

The subject of a further data set is S. pyogenes 02A1UC1. Described as above. Format: cell-based. Conditions: incubation time 18 h.
Text: as §1

For the next data set, the system named is S. epidermidis 012GO20. The description is as above. Type of data set: cell-based. Conditions: incubation time 18 h.
Text: as §1

In another data set the test system is E. faecalis 02D2DU18. Described as above. Type of data set: cell-based. Conditions: incubation time 18 h.
Text: as §1

The subject of a further data set is S. aureus 011HT3. The data set is described as above. Type of data set: cell-based. Particulars: incubation time 18 h.
Text: as §1

A further data set has as its system S. pyogenes O2A1SJ1. The description is as above. Type of data set: cell-based. Particulars: incubation time 18 h.
Text: as §1

In another data set the test system is S. pneumoniae 030BI2. The data set is described as above. Type of data set: cell-based. Conditions: incubation time 18 h.
Text: as §1

Another data set has as its system S. pyogenes 02A1FI6. The data set is described as above. Format: cell-based. Conditions: incubation time 18 h.
Text: as §1

The next data set concerns S. aureus 011HT18. Described as above. Type of data set: cell-based. Particulars: incubation time 18 h.
Text: as §1

In the next data set the test system is S. aureus 011HT1. Described as above. Type of data set: cell-based. Particulars: incubation time 18 h.
Text: as §1

For the next data set, the system named is E. faecalis 02D2HM9. The description is as above. Particulars: incubation time 18 h. Type of data set: cell-based.
Text: as §1

The next data set relates to S. epidermidis 012GO42. The data set is described as above. Type of data set: cell-based. Conditions: incubation time 18 h.
Text: as §1

The test system of a further data set is S. aureus 0121O64. The description is as above. Type of data set: cell-based. Particulars: incubation time 18 h.
Text: as §1

Where two headings read alike, the source gives them in different places. Some results are limits rather than exact numbers.

In the case of `CC[C@H](C)[C@@H]1NC(=O)C2NC(=O)[C@H](CC(C)C)NC(=O)C(NC(=O)C3CSCC(NC(=O)[C@H](C)N)C(=O)N[C@@H](CO)C(=O)NCC(=O)N[C@@H](Cc4c[nH]c5ccccc45)C(=O)N[C@@H](C(C)C)C(=O)N3)C(C)SCC(NC(=O)[C@H](CCC(=O)O)NC1=O)C(=O)NCC(=O)NC1C(=O)N[C@@H](C(C)C)C(=O)N[C@@H]([C@@H](C)CC)C(=O)NC(CSC2C)C(=O)N[C@@H](C)C(=O)NC(C(=O)O)C[S+]([O-])C1C` (stereo partly shown) [Ala(0)-actagardine], in the data set “Solubility”, the solubility entry is recorded as “soluble”. The “cytotoxic actions or other toxicities” value in “Tolerability / toxicity” is on record as “not observed”. The tolerability entry in the data set “Tolerability / toxicity” (at the active concentration and above) is “good”. For the same compound, the stability result in “Stability in solution” (in neutral and mildly alkaline medium) was “Stable”; in the data set “Stability in solution” (in strongly acidic and strongly alkaline solution), “unstable”.

With “di-Boc-Lys(0)-actagardine [Boc--Lys--Acta]”, the MIC values entry is “<= 0.04 μg/ml” in the data set with S. pyogenes A561; 10 µg/mL in the data set with S. aureus SG511 (S. aureus SG511 + 10% serum); 2.5 µg/mL in the data set on S. aureus SG511 (S. aureus SG511); > 40 µg/mL against E. Coli; 10 µg/mL in the data set with S. aureus Exp54146; 40 µg/mL in the data set with S. aureus 011DU5. In addition, the MIC values is 40 µg/mL in the data set on E. faecalis 02D2UC5; 5 µg/mL against S. milleri 02milGR12; 2.5 µg/mL against Strepto gr. G 02G0CB2; > 40 µg/mL in [1]; 5 µg/mL against S. mitis 02mitGR16; > 40 µg/mL in the data set with E. faecalis 02D2HT10. Moreover, the MIC values entry with S. pyogenes 02A1UC1 is “<= 0.04 μg/ml”; in the data set with S. epidermidis 012GO20, > 40 µg/mL; against E. faecalis 02D2DU18, 10 µg/mL; in the data set on S. aureus 011HT3 (S. aureus 011HT3 + 10% serum) it was 20 µg/mL; in the data set with S. aureus 011HT3 (S. aureus 011HT3 + 50% serum), 40 µg/mL; in the data set on S. aureus 011HT3 (S. aureus 011HT3) it was 10 µg/mL. Also, the MIC values was 0.08 µg/mL in the data set with S. pyogenes O2A1SJ1; 1.2 µg/mL in the data set on S. pneumoniae 030BI2; “<= 0.04 μg/ml” in the data set with S. pyogenes 02A1FI6; > 40 µg/mL against S. aureus 011HT18; 10 µg/mL with S. aureus 011HT1; > 40 µg/mL in the data set with E. faecalis 02D2HM9. Also, the MIC values against S. epidermidis 012GO42 and against S. aureus 0121O64 was > 40 µg/mL in each case.
